Legend:
[1] = target: T1, KIX domain of CBP, Arginine-600 to Alanine mutant (GST fusion) (Homo sapiens, UniProt Q92793, R601A); experiment: Biacore surface plasmon resonance, binding to KIX Arg-600-Ala mutant versus native KIX; settings: 5 μM
T1 construct: spans CBP amino acids 586-666; made in house; host or cells: E. coli BL21(DE3)
Procedure: (§1) KIX domain mutants were created by standard cloning and mutagenesis methods in the pGEX4T3 vector (GE Healthcare Life Sciences). GST-KIX fusion proteins were expressed in BL21(DE3-) cells (New England Biolabs) following induction with 1 mM IPTG for 6 hours at 37 degrees. GST-KIX and its mutants were purified with the B-PER GST Fusion Protein Spin Purification Kit (Thermo Scientific/Pierce). Surface Plasmon Resonance (Biacore) analysis was performed on a GE Biacore 3000 surface plasmon resonance instrument in collaboration with the Stanford Protein and Nucleic Acid (PAN) Facility.
(§2) To confirm the binding of Compound A to the KIX domain of CBP, the KIX domain was expressed and purified as a fusion protein with Glutathione-S-Transferase (GST). Binding of Compound A to the KIX domain and two KIX domain mutants in which residues critical for CREB binding were altered or removed (Arg-600 mutated to Alanine or deletion of amino acids 586-602) was determined by Surface Plasmon Resonance (Biacore) analysis (FIG. 1, panel B). Mutation of Arginine-600 to Alanine reduced binding of Compound A by ˜45%, while a KIX domain mutant lacking amino acids 586-602 reduced binding by ˜70%. […] A hypothetical binding model between Compound A and CBP KIX domain is shown (FIG. 1, panel C). […]

[2] = target: T2, KIX domain of CBP, mutant lacking amino acids 586-602 (GST fusion) (Homo sapiens, UniProt Q92793); experiment: Biacore surface plasmon resonance, binding to KIX deletion mutant versus native KIX; settings: 5 μM
T2 construct: spans CBP amino acids 586-666; made in house; host or cells: E. coli BL21(DE3)
Procedure: as §1, §2

[3] = tested on: primary AML patient bone marrow samples; experiment: Primary AML patient bone marrow samples, Trypan blue exclusion assay; assay type: cell-based, human; settings: 2 μM, 72 hours
Procedure: AML cell lines were purchased from ATCC and maintained with IMDM (Gibco) supplemented with 10% FBS (Fisher Scientific) and 1% PSG (Gibco). Cells were plated at a density of 2-4×10^5 cells/ml, and treated with various doses of Compound A in 0.1% DMSO or 0.1% DMSO alone. Cell counts and viability were determined using the Vi-CELL XR Cell Viability Analyzer (Beckman Coulter). HL-60 and KG-1 cells overexpressing CREB or CBP were generated using lentiviral gene delivery with subsequent puromycin selection and FACs sorting for GFP. CREB knockdown was achieved by infecting cells with a lentivirus expressing the shRNA sequence 5′-[…]-3′ (SEQ ID NO:). For chemotherapy combination experiments, combination index values were calculated using median effects analysis on Calcusyn software. Human patient bone marrow samples were cultured in DMEM plus 20% FBS and 1×PSG, supplemented with recombinant GM-CSF (20 ng/ml), G-CSF (20 ng/ml), SCF (50 ng/ml), IL-3 (20 ng/ml), and IL-6 (10 ng/ml). Cells were plated at a concentration of 1×10^5 cells/ml in a 12-well plate. Vehicle (0.1% DMSO) or Compound A (2 μM) was added for up to 72 hours. All samples contained >85% AML blasts and were not sorted prior to performing experiments. […] Single cell suspensions of bone marrow culture were subsequently analyzed on a D×P10 flow cytometer (Cytek). […]

[4] = tested on: H3K27 acetylation; experiment: Western blot of total and H3K27-specific histone acetylation; assay type: cell-based; settings: 6 or 24 hours
Procedure: Cells were lysed in RIPA buffer (Sigma), and the protein concentrations were determined by BCA assay (Thermo Scientific Pierce). Lysates were solubilized in 6×SDS PAGE buffer and […] of protein was loaded into 6-15% SDS PAGE gels, pheresed, and then transferred onto […] PVDF membrane (Millipore). Primary antibodies were applied at a dilution of 1:1000. Anti-Bcl-2, -Bax, -Mcl-1, -Bcl-XL, -Cyclin A and -Cyclin D1 antibodies were purchased from Cell Signaling Technologies. Anti-total acetylated histone and -ac-H3K27 were purchased from Santa Cruz Biotechnologies. Anti-actin and -CREB antibodies were purchased from upstate. Secondary antibodies were used at a 1:2500 dilution and purchased from Thermo Scientific/Pierce. WesternBright ECL was used for image acquisition on Image Lab software (Bio-Rad).

[5] = tested on: Cyclin A1, Cyclin D1, Fra-1, RFC-3; experiment: Expression of CREB-regulated cell cycle genes; assay type: cell-based
Procedure: Cyclin A1 and D1 expression was decreased following 12 hours of treatment, while Fra-1 and RFC-3 expression decreased following 48 hours of treatment.
Mol Cell Biol. 2004; 24(11):4696-709) (FIG. 6, panel C). […] Levels of RFC-3 also decrease following Compound A treatment (FIG. 6, panel C).

T2 sequence (Q92793 with tags, fused parts or gaps, stated change not applied): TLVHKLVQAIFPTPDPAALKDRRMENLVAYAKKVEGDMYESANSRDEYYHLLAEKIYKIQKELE
T1 sequence (Q92793 586-666 R601A): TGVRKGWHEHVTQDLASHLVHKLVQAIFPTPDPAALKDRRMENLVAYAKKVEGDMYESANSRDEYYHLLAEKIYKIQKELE

`N#Cc1ccc(NC(=O)c2cc3ccccc3cc2O)cc1` [Compound A, N-(4-cyanophenyl)-3-hydroxy-2-naphthamide] was tested, and the “reduction of binding of Compound A by mutation of Arginine-600 to Alanine” value [1] was ~45%, the “reduction of binding of Compound A by KIX mutant lacking amino acids 586-602” value [2] was ~70% and the “decreased viable cell count” value [3] was “a range of responsiveness”. The “H3K27 acetylation (Western blot)” value [4] was “specific decrease in H3K27 acetylation”, the “Cyclin A1 and D1 expression” value ([5]; 12 hours of treatment) was “decreased” and the “Fra-1 and RFC-3 expression” value ([5]; 48 hours of treatment) was “decreased”.
